Test results taken from patent publication US12570612B2, “Substituted nitrogen heterocyclic compound and anesthetic effect thereof” (priority 2019, dated 2026).
“Also recorded” adds a separate entry of the source.

Legend:
Sprague-Dawley rats [1] = experiment: animal or person; conditions: for Approximate therapeutic index / Minimal lethal dose: rats
Procedure: (§1) Adult male Sprague-Dawley rats (250-300 g) were selected for the experiment. […] The anesthesia effects of the compounds were assessed in rats using a LORR assay and a period >30 s was considered as an indicator of general anesthesia.

Sprague-Dawley rats [2] = experiment: Pharmacological characteristics at equivalent doses (2ED50), Group A compounds; type: in vivo; set-up: Sedation duration: unit not given here; conditions: 2ED50, tail vein; for Types and incidence of adverse reactions: (animals affected/animals)
H295R cell line [3] = experiment: Adrenocortical function in vitro test: secretion of cortisol and corticosterone, Group A compounds; type: cell-based; conditions: H295 cells; for EC50: 0.1-10000 nM, HPLC-MS/MS
Sprague-Dawley rats [4] = experiment: animal or person
Procedure: as §1

H295R cell line [5] = experiment: Adrenocortical function in vitro test: secretion of cortisol and corticosterone, Group B compounds; type: cell-based; conditions: H295R cells; for EC50: Homo sapiens, NCI-H295R, 0.1-10000 nM, HPLC-MS/MS
[6] = Homo sapiens, read-out: EC50 (Corticosterone)
[7] = Homo sapiens, read-out: EC50 (Cortisol)
[8] = read-out: EC50 (Corticosterone)

Compound | ED50 (Sprague-Dawley rats [1]; Rattus norvegicus) | Approximate therapeutic index (Sprague-Dawley rats [1]) | Minimal lethal dose (Sprague-Dawley rats [1]) | Onset time (Sprague-Dawley rats [2]) | Righting reflex duration (Sprague-Dawley rats [2]) | Types and incidence of adverse reactions (Sprague-Dawley rats [2]) | Corticosterone as an indicator to determine the presence of inhibition (H295R cell line [3]) | Cortisol as an indicator to determine the presence of inhibition (H295R cell line [3]) | EC50 (H295R cell line [3]; [6]) | EC50 (H295R cell line [3]; [7]) | also measured
CO[C@H]1C[C@@H](OC(=O)c2ccnn2[C@H](C)c2ccccc2)C1 [Compound A25] | 0.04 to 0.5 mg/kg | >21 | >5 mg/kg | 0.50 ± 0.12 min | 2.6 ± 0.83 min | Red urine(8/8), Hindlimb; also recorded: rigidity (2/8), Tremor(1/8) | 0 | 0 | > 1000 nM | > 1000 nM | –
C=C=CC1(OC(=O)c2c(C(F)(F)F)cnn2[C@H](C)c2ccccc2)COC1 [Compound A100] | 2 to 6 mg/kg | >6 | >14 mg/kg | 0.49 ± 0.17 min | 3.21 ± 0.89 min | Red urine(8/8), Indirect; also recorded: tremor Tremor(4/8), Four; also recorded: limbs; also recorded: rigidity(2/8), Euphoria(2/8) | 0 | 0 | > 100 nM | > 100 nM | –
CC#CC1(OC(=O)c2ccnn2[C@H](C)c2ccccc2)COC1 [Compound A10] | 2 to 6 mg/kg | >5 | >12 mg/kg | 0.43 ± 0.22 min | 1.32 ± 0.61 min | Red urine(8/8),; also recorded: Tremor(3/8), Forelimb; also recorded: clonic; also recorded: convulsion(2/8), Hindlimb; also recorded: rigidity(2/8), Facial; also recorded: muscle twitching(2/8),; also recorded: Nod(1/8) | 0 | 0 | > 1000 nM | > 1000 nM | –
CC(=O)C1=C(OC(=O)c2c(F)c(F)nn2[C@H](C)c2ccccc2)CCC1 [Compound A98] | 1 to 2 mg/kg | >7 | >10 mg/kg | 0.30 ± 0.06 min | 1.89 ± 0.23 min | Red urine(8/8), Facial; also recorded: muscle; also recorded: twitching(2/8), Hindlimb; also recorded: rigidity (1/8) | 0 | 0 | > 1000 nM | > 1000 nM | –
C=C=CC1(OC(=O)c2c(F)cnn2[C@H](C)c2ccccc2)COC1 [Compound A73] | 0.04 to 0.5 mg/kg | >25 | >2 mg/kg | 0.42 ± 0.07 min | 1.21 ± 0.45 min | Red and urine(8/8), Tremor(3/8), and Facial muscle and twitching(2/8), Euphoria and (1/8), Nod(1/8) | 0 | 0 | > 1000 nM | > 1000 nM | –
COC(=O)C1=C(OC(=O)c2c(C(F)(F)F)cnn2[C@H](C)c2ccccc2)CCCC1 [Compound A101] | 1 to 2 mg/kg | >8 | >13 mg/kg | 0.39 ± 0.21 min | 2.29 ± 0.65 min | Red and urine(8/8), Euphoria(3/8), and Nod(2/8) | 0 | 0 | > 100 nM | > 100 nM | –
C=C=CC1(OC(=O)c2c(F)c(F)nn2[C@H](C)c2ccccc2)COC1 [Compound A92] | 0.04 to 0.5 mg/kg | >14 | >1 mg/kg | 0.43 ± 0.22 min | 2.03 ± 0.33 min | Red and urine(8/8), Tremor(2/8), and Euphoria(1/8) | 0 | 0 | > 1000 nM | > 1000 nM | –
C=CC1(OC(=O)c2cc(F)nn2[C@H](C)c2ccccc2)COC1 [Compound A65] | 2 to 6 mg/kg | >7 | >16 mg/kg | 0.36 ± 0.15 min | 2.48 ± 0.67 min | Red and urine(8/8), Tremor(2/8) | 0 | 0 | > 100 nM | > 100 nM | –
COC(=O)C1=C(OC(=O)c2cc(F)nn2[C@H](C)c2ccccc2)CCCC1 [Compound A54] | 1 to 2 mg/kg | >9 | >12 mg/kg | 0.69 ± 0.11 min | 2.13 ± 1.80 min | rigidity; also recorded: (3/8), GeneralTremor(1/8); also recorded: Red urine(8/8), Hindlimb | 0 | 0 | > 100 nM | > 100 nM | –
C=CC#CC(C)OC(=O)c1ccnn1[C@H](C)c1ccccc1 (stereo partly shown) [Compound A15] | 2 to 6 mg/kg | >4 | >9 mg/kg | 0.40 ± 0.10 min | 1.82 ± 0.76 min | Red urine(8/8),; also recorded: Euphoria(2/8), Hindlimb; also recorded: rigidity(2/8), Hindlimb; also recorded: Tremor(1/8) | 0 | 0 | > 100 nM | > 100 nM | –
C=C=CC1(OC(=O)c2c(Cl)cnn2[C@H](C)c2ccccc2)COC1 [Compound A108] | 2 to 6 mg/kg | >5 | >15 mg/kg | 0.26 ± 0.20 min | 3.29 ± 1.20 min | Red urine(8/8), Hindlimb; also recorded: rigidity (7/8), the four; also recorded: limbs Tremor(3/8) | 0 | 0 | > 100 nM | > 100 nM | –
CCC(CC)OC(=O)c1ccnn1[C@H](C)c1ccccc1 [Compound A21] | – | >16 | >6 mg/kg | 0.51 ± 0.10 min | 1.16 ± 0.39 min | Red and urine(8/8), Euphoria(3/8), and Four limbs Tremor(2/8), and Hindlimb rigidity (2/8) | 0 | 0 | – | – | ED50 (Sprague-Dawley rats [1]; LORR in rats, tail vein, brackets = 95% confidence limit): D (D indicates that the measured ED50 is in the range of 2.00-6.00 mg/kg (excluding 2.00 mg/kg, including 6.00 mg/kg)); Sedation duration (Sprague-Dawley rats [2]): 8.65 ± 2.38; EC50 (H295R cell line [3]; [8]): > 100 nM; EC50 (H295R cell line [3]; read-out: EC50 (Cortisol)): > 100 nM
CC#CC(C)(C)OC(=O)c1c(F)cnn1[C@H](C)c1ccccc1 [Compound A83] | 1 to 2 mg/kg | >10 | >12 mg/kg | 0.43 ± 0.32 min | 3.21 ± 0.41 min | – | 0 | 0 | > 1000 nM | > 1000 nM | –
C=CC1(OC(=O)c2ccnn2[C@H](C)c2ccccc2)COC1 [Compound A34] | 0.5 to 1 mg/kg | >6 | >4 mg/kg | 0.60 ± 0.32 min | 1.6 ± 0.43 min | Red urine(8/8), Hindlimb; also recorded: rigidity(2/8), Tremor(1/8) | 0 | 0 | > 1000 nM | > 1000 nM | –
CO[C@H]1C[C@@H](OC(=O)c2c(F)c(F)nn2[C@H](C)c2ccccc2)C1 [Compound A94] | 0.5 to 1 mg/kg | >12 | >12 mg/kg | 0.33 ± 0.12 min | 1.26 ± 0.40 min | Red and urine(8/8), Tremor(3/8), and Four limbs and rigidity(2/8), Euphoria(1/8) | 0 | 0 | > 1000 nM | > 1000 nM | –
CCOC(=O)c1ccnn1[C@H](C)c1ccccc1 [Compound A1] | 1 to 2 mg/kg | >8 | >16 mg/kg | 0.56 ± 0.26 min | 2.24 ± 1.29 min | – | 0 | 0 | > 1000 nM | > 1000 nM | –
COC(=O)C1=C(OC(=O)c2cnnn2[C@H](C)c2ccccc2)CCCC1 [Compound B30] | – | – | – | – | – | – | – | – | – | – | ED50 (Sprague-Dawley rats [4]; Rattus norvegicus, LORR in rats, tail vein, brackets = 95% confidence limit): 0.5 to 1 mg/kg; Approximate therapeutic index (Sprague-Dawley rats [4]; rats): >10; Minimal lethal dose (Sprague-Dawley rats [4]; rats): >10 mg/kg; Corticosterone as an indicator to determine the presence of inhibition (H295R cell line [5]): 0; Cortisol as an indicator to determine the presence of inhibition (H295R cell line [5]): 0; EC50 (H295R cell line [5]; [8]): > 1000 nM; EC50 (H295R cell line [5]; read-out: EC50 (Cortisol)): > 1000 nM
